Experiment: xn = mol fraction of the nth substance listed

CCCC[n+]1ccn(C)c1.O=S(=O)([N-]S(=O)(=O)C(F)(F)F)C(F)(F)F + CC(=O)[O-].CCCC[NH2+]CCO
101 kPa, x2 = 0
Conditions | viscosity [mPa·s]
278.15 K | 145.6
288.15 K | 83.44
293.15 K | 65.11
318.15 K | 24.05

CCCC[n+]1ccn(C)c1.O=S(=O)([N-]S(=O)(=O)C(F)(F)F)C(F)(F)F + CC(=O)[O-].CCCC[n+]1ccn(C)c1
101 kPa
Conditions | electrical conductivity, 313.15 K [S/m] | viscosity, 298.15 K [mPa·s] | viscosity, 313.15 K [mPa·s] | viscosity, 353.15 K [mPa·s]
x1 = 1 | 0.683 | – | 28.5 | –
x2 = 0 | – | 50.3 | – | 9.52

CC1CNCCN1 (stereo unspecified) + CC(=O)[O-].CCCC[n+]1ccn(C)c1 + O
viscosity [mPa·s], 100 kPa
Conditions | 298.15 K | 303.15 K | 308.15 K | 313.15 K | 318.15 K | 323.15 K | 328.15 K | 333.15 K
x2 = 0.04327, x1 = 0.02647 | 3.46 | 3.23 | 2.82 | 2.64 | 2.39 | 1.91 | 1.31 | 1.16
x2 = 0.05132, x1 = 0.01784 | 3.58 | 3.38 | 3.16 | 3.02 | 2.84 | 2.52 | 2.47 | 1.83
x2 = 0.05944, x1 = 0.009089 | 4.03 | 3.78 | 3.72 | 3.24 | 3.11 | 2.89 | 2.54 | 2.03

Nc1ncnc2[nH]cnc12 + CC(=O)[O-].CC[n+]1ccn(C)c1
Conditions | viscosity [mPa·s]
298.15 K, 100 kPa, x1 = 0.2012 | 960

CCCC[n+]1ccn(C)c1.F[P-](F)(F)(F)(F)F + CC(=O)c1ccccc1
Conditions | viscosity [mPa·s]
313.15 K, 100 kPa, x2 = 0 | 97

CCCC[n+]1ccn(C)c1.F[P-](F)(F)(F)(F)F + CC(C)=O
Conditions | electrical conductivity [S/m] | viscosity [mPa·s]
296.15 K, 101 kPa, x2 = 0 | 0.15 | –
296.15 K, 101 kPa, x2 = 0.9195 | 3.84 | –
298.15 K, 101 kPa, x2 = 0.4972 | 1.28 | 14.7
298.15 K, 101 kPa, x2 = 0.7839 | 2.86 | 2.05
298.15 K, 101.3 kPa, x2 = 0.4485 | – | 18.46
298.15 K, 101.3 kPa, x2 = 0.6007 | – | 6.96
298.15 K, 101.3 kPa, x2 = 0.8058 | – | 1.648

CCCCCC[N+](CC)(CC)CC.O=S(=O)([N-]S(=O)(=O)C(F)(F)F)C(F)(F)F + CC(C)O
100 kPa
Conditions | viscosity [mPa·s]
293.15 K, x2 = 0.096 | 160
298.15 K, x2 = 0.2045 | 95.8
298.15 K, x2 = 0.3101 | 68.4
298.15 K, x2 = 0.4987 | 35.9
303.15 K, x2 = 0.3101 | 61.4
308.15 K, x2 = 0.4056 | 35.1
308.15 K, x2 = 0.4987 | 25.5
308.15 K, x2 = 0.5916 | 18
308.15 K, x2 = 0.8015 | 5.65
308.15 K, x2 = 0.9193 | 2.98
313.15 K, x2 = 0.096 | 69.9
313.15 K, x2 = 0.5916 | 16

CCCC[n+]1cccc(C)c1.O=S(=O)([N-]S(=O)(=O)C(F)(F)F)C(F)(F)F + CC(C)O
Conditions | electrical conductivity [S/m]
298.15 K, 101.3 kPa, x2 = 0.3381 | 0.642

From the CheMixHub ionic liquid set
